From ChEMBL document CHEMBL3397034, “Environmentally benign synthesis, molecular properties prediction and anti-inflammatory activity of novel isoxazolo[5,4-d]isoxazol-3-yl-aryl-methanones via vinylogous Henry nitroaldol adducts as synthons” (2015)

What was measured:
Assay type in all cases: functional
[1] = test system: Rattus norvegicus; test: Anti-inflammatory activity in Wistar rat assessed as reduction in carrageenan induced paw edema by measuring paw volume as ml of Hg at 100 mg/kg, po administered 30 mins before carrageenan challenge measured 1 hr post carrageenan challenge (reference value: 0.36 +/- 0.3 ml of Hg)
[2] = test system: Rattus norvegicus; test: Anti-inflammatory activity in Wistar rat assessed as reduction in carrageenan induced paw edema by measuring paw volume as ml of Hg at 100 mg/kg, po administered 30 mins before carrageenan challenge measured 6 hrs post carrageenan challenge (reference value: 0.36 +/- 0.3 ml of Hg)
[3] = test system: Rattus norvegicus; test: Anti-inflammatory activity in Wistar rat assessed as reduction in carrageenan induced paw edema by measuring paw volume as ml of Hg at 100 mg/kg, po administered 30 mins before carrageenan challenge measured 2 hrs post carrageenan challenge (reference value: 0.36 +/- 0.3 ml of Hg)
[4] = test system: Rattus norvegicus; test: Anti-inflammatory activity in Wistar rat assessed as reduction in carrageenan induced paw edema by measuring paw volume as ml of Hg at 100 mg/kg, po administered 30 mins before carrageenan challenge measured 4 hrs post carrageenan challenge (reference value: 0.36 +/- 0.3 ml of Hg)

Row | Compound | Activity [1] [mL] | Activity [2] [mL] | Activity [3] [mL] | Activity [4] [mL]
1 | Cc1noc2c(C(=O)c3ccccc3)noc12 | 0.8 | 0.63 | 0.86 | 0.82
2 | Cc1noc2c(C(=O)c3ccccc3[N+](=O)[O-])noc12 | 0.75 | 0.63 | 0.83 | 0.81
3 | Cc1noc2c(C(=O)c3ccccc3O)noc12 | 0.82 | 0.61 | 0.93 | 0.8
4 | COc1ccc(C(=O)c2noc3c(C)noc23)cc1 | 0.78 | 0.62 | 0.7 | 0.83
5 | Cc1noc2c(C(=O)c3ccccc3Cl)noc12 | 0.51 | 0.5 | 0.68 | 0.51
6 | Cc1noc2c(C(=O)c3ccc(N(C)C)cc3)noc12 | 0.78 | 0.55 | 0.83 | 0.63
7 | Cc1noc2c(C(=O)c3ccccc3Br)noc12 | 0.5 | 0.51 | 0.68 | 0.65
8 | Cc1noc2c(C(=O)c3ccc(Cl)cc3)noc12 | 0.53 | 0.41 | 0.65 | 0.67
9 | Cc1noc2c(C(=O)c3ccc(Br)cc3)noc12 | 0.52 | 0.32 | 0.69 | 0.54
